Data set [1] relates to DUXB11 cell lines. In kind it is cell-based, Chinese hamster. The note with it: for Cell viability (%): Chinese hamster, 3 days. The protocol:
FIG. 7A and FIG. 7B. Impact of Mycophenolic acid (MPA) on afucosylation in cell lines (FIG. 7A and FIG. 7B showing two different cell lines) derived from DUXB11. The cells were cultured in 3 L bioreactor respectively for 7 days following the platform process. On day 7, the cells were divided into several 1 L shake flasks with 200 mL working volume and then dosed with various amounts of MPA (0 μM, […], 10 μM, 30 μM). After dosing MPA, shake flask fed-batch is conducted until day-3 harvest. Filtered supernatant samples were analyzed for titer and N-glycan analysis for afucosylation level.
DUXB11 cell lines (cell line #1 and #2) were cultured in 3 L bioreactor respectively for 7 days following the platform process. On day 7, the cells were divided into several 1 L shake flasks with 200 mL working volume and then dosed with various amounts of MPA (0 μM, 1 μM, 10 μM, 30 μM). After dosing MPA, shake flask fed-batch is conducted until day-3 harvest. Filtered supernatant samples were analyzed for titer and N-glycan analysis for afucosylation level. […] However, the titer was decreased (side effect) (see Table 8 below and FIG. 7A and FIG. 7B). […] The impact on viability became much more significant in bioreactor process (see Example 9 below).

The subject of data set [2] is DUXB11 cell lines. In kind it is cell-based, Chinese hamster. The note with it: for impact on afucosylation: 3 L bioreactor, harvest D13; for Afucosylation (%) / Titer: MPA supplementation Day 5, DUXB11. As to the method:
FIG. 8. Impact of the timing of supplementation with Mycophenolic acid (MPA) on afucosylation of DUXB11 cell line in 3 L bioreactors (A, B, C, and D) with the same seed density following the platform process. When the viable cell density (VCD) reached its peak (Day 5 in the study), fixed 5 μM of MPA was added in bioreactor A. At the same time, MPA was added in bioreactor B based on the VCD value to make sure MPA per cell is the same as the platform process to eliminate the possible impact of different cell growth. The next day (one day past peak VCD day, D6 in this study), fixed 5 μM of MPA was added in bioreactor C and MPA was added in bioreactor D based on its D6 VCD value to make sure MPA per cell is the same as the platform process to eliminate the possible impact of different cell growth. All bioreactors were harvested on D13. The filtered supernatant samples were analyzed for titer and N-glycan analysis for afucosylation level.
DUXB11 cell lines were cultured in 3 L bioreactor respectively following the platform process. On day 6, various amounts of MPA were dosed (0 μM and 5 μM). After dosing MPA, bioreactors were kept running until they were harvested on day 13. Filtered supernatant samples were analyzed for titer and N-glycan analysis for afucosylation level.
The culture conditions are described in FIG. 8. […] In addition, afucosylation level was increased with peak VCD day MPA addition (fixed 5 μM MPA vs. VCD based MPA addition).
The effect of temperature shift and supplementation with MPA is provided in FIG. 12, FIG. 13, FIG. 14A, and FIG. 14B and Table 11 below.

A further data set relates to BIIB603 cell line. The data set is described as follows: BIIB603 shake flask fed-batch with MPA or acMPAG: afucosylation (N-glycan analysis). The data set is classed as cell-based. Conditions: BIIB603 shake flasks; MPA 20, 40 μM or acMPAG 20 μM dosed day 6; 4 more days at 31 °C; FIG. 18. The protocol:
FIG. 18. Impact of Mycophenolic acid (MPA) and Mycophenolic acid acyl glucuronide (acMPAG) on afucosylation in BIIB603 cell line. The cells were scaled up to 5 L BR for fed-batch production process. On day 5, temperature was shifted from 37° C. to 31° C. On day 6, cell culture was drained from the bioreactor and divided into several 500 mL shake flasks with 100 mL working volume and then dosed with various amounts of MPA (0 μM, 20 μM, 40 μM) or acMPAG (20 μM) in duplicates. After dosing, the shake flasks were cultured another 4 days at 31° C., 5% CO2 and 150 rpm with fed-batch process and then harvested. The supernatant was sent for PQ assay (N-glycan analysis) for afucosylation level.
BIIB603 cell line was scaled up to 5 L BR for fed-batch production process. On day 5, temperature was shifted from 37° C. to 31° C. On day 6, cell culture was drained from the bioreactor and divided into several 500 mL shake flasks with 100 mL working volume and then dosed with various amounts of MPA (0 μM, 20 μM, 40 μM) or acMPAG (20 μM) in duplicates. After dosing, the shake flasks were cultured another 4 days at 31° C., 5% CO2 and 150 rpm with fed-batch process and then harvested. The supernatant was sent for PQ assay (N-glycan analysis) for afucosylation level.

A further data set relates to DUXB11 cell line. The data set is described as follows: DUXB11 3 L bioreactor with insulin additions and fixed MPA: afucosylation, glycosylation map, titer. The data set is classed as cell-based, Chinese hamster. Also on record: M3F / Afucosyl / G0 / G0F / MS / G1 + G1′ / G1F + G1F′ / M6 / G2 / G2F: unit not given here. Conditions: for Afucosyl / G0 / G0F / G1 + G1′ / G1F + G1F′ / G2 / G2F / M3F / M6 / MS: with MPA, DUXB11; for Afucosylation (%) / Titer: fixed 5 μM MPA, DUXB11 3 L bioreactor. As to the method: FIG. 11. […] Fixed 5 μM of MPA was added on Day 9 in all bioreactors and harvested on the same day. Filtered supernatant samples were analyzed for titer and N-glycan analysis for afucosylation level.
The culture conditions are described in FIG. 11.

The test system of a further data set is FcgRIII a. As to the kind of experiment: FcgRIIIa binding of product after insulin and MPA supplement on DUXB11.
[3] abbreviates: 1 μM MPA dosed day 7, DUXB11 shake flask, harvest 3 days after dosing.
Where [4] appears, read: 10 μM MPA dosed day 7, DUXB11 shake flask, harvest 3 days after dosing.
The mark [5] stands for this setting: 30 μM MPA dosed day 7, DUXB11 shake flask, harvest 3 days after dosing.
Where [6] appears, read: increasing MPA dosing concentration (1, 10, 30 μM), shake flask.

Where two headings read alike, the source gives them in different places.

`COc1c(C)c2c(c(O)c1C/C=C(\C)CCC(=O)O)C(=O)OC2` [MPA, mycophenolic acid]: the impact on viability result in the data set on DUXB11 cell lines [1] was “not significant”. The “Afucosylation (%)” value in the data set on DUXB11 cell lines [1] (setting [3]) is given as 3.85%; in the data set with DUXB11 cell lines [1] (setting [4]), 4.9%; in the data set with DUXB11 cell lines [1] (setting [5]), 4.4%; with DUXB11 cell lines [2] (temperature 35 to 30 °C), 11.9%; in the data set on DUXB11 cell lines [2] (temperature 35 to 33 °C), 10.7%. In addition, the “Titer” value in the data set on DUXB11 cell lines [1] (setting [3]) is 0.136 g/L; with DUXB11 cell lines [1] (setting [4]), 0.106 g/L; in the data set on DUXB11 cell lines [1] (setting [5]), 0.105 g/L; in the data set with DUXB11 cell lines [1] (setting [6]) it was “decreased”; in the data set with DUXB11 cell lines [2] (temperature 35 to 30 °C) it was 1.5 g/L; in the data set on DUXB11 cell lines [2] (temperature 35 to 33 °C), 1.8 g/L. Besides, the entries for the “Cell viability (%)” value in the data set on DUXB11 cell lines [1] (1 μM), with DUXB11 cell lines [1] (10 μM) and in the data set on DUXB11 cell lines [1] (30 μM) were 62%, 61% and 62%, respectively. In addition, the afucosylation level result is reported as “increase” with DUXB11 cell lines [1] (setting [6]) and “increase in the afucosylation level” with BIIB603 cell line. The impact on afucosylation result with DUXB11 cell lines [2] (MPA added on a different day than peak VCD (one day past, D6)) is listed as “non-significant impact”; in the data set with DUXB11 cell lines [2] (MPA added on the day of peak VCD (Day 5), fixed 5 μM or VCD based), “significant impact”.

For the compound `COc1c(C)c2c(c(O)c1C/C=C(\C)CCC(=O)O[C@@H]1O[C@H](C(=O)O)[C@@H](O)[C@H](O)[C@H]1O)C(=O)OC2` [acMPAG, mycophenolic acid acyl glucuronide], in the data set on BIIB603 cell line, the afucosylation level result is reported as “increased the afucosylation level to similar extent”.

In the case of insulin, in the data set on DUXB11 cell line (2.5 mg/L ins in feed 1), the Afucosyl is 4.9, the G0 came out at 3.9, the G0F came out at 68.1 and the “G1 + G1′” value is reported as 0.9. In the data set with DUXB11 cell line (2.5 mg/L ins in feed 1), the “G1F + G1F′” value is 20.2, the G2 worked out at 0.0, the G2F is on record as 1.8 and the M3F turned out to be 1.0. Further, in the data set with DUXB11 cell line (2.5 mg/L ins in feed 1), the M6 is given as 0.90 and the MS came out at 2.2. In the data set with DUXB11 cell line (10 mg/L ins in feed 1), the Afucosyl was 6.2, the G0 was 5.1, the G0F was determined as 64.9 and the “G1 + G1′” value was found to be 1.1. For the same compound, in the data set on DUXB11 cell line (10 mg/L ins in feed 1), the “G1F + G1F′” value was found to be 21.7, the G2 stood at 0.0, the G2F was found to be 2.3 and the M3F turned out to be 0.9. Moreover, in the data set with DUXB11 cell line (10 mg/L ins in feed 1), the M6 is 0.9 and the MS came to 2.2. Also, in the data set on DUXB11 cell line (30 mg/L ins in feed 1), the G0 came out at 6.7, the G0F was determined as 62.5, the “G1 + G1′” value is on record as 1.3 and the “G1F + G1F′” value turned out to be 21.1. In the data set with DUXB11 cell line (30 mg/L ins in feed 1), the G2 is 0.0, the G2F is given as 2.3, the M3F is 0.9 and the M6 came to 1.1. For the same compound, the MS in the data set with DUXB11 cell line (30 mg/L ins in feed 1) amounted to 2.4. Also, in the data set on DUXB11 cell line (60 mg/L ins in feed 1), the G0 is 6.4, the G0F is 61.4, the “G1 + G1′” value was 1.4 and the “G1F + G1F′” value was 22.9. Also, in the data set on DUXB11 cell line (60 mg/L ins in feed 1), the G2 is recorded as 0.0, the G2F is 2.6, the M3F is 0.8 and the M6 is 0.9. Besides, the MS in the data set with DUXB11 cell line (60 mg/L ins in feed 1) was determined as 2.5. Besides, in the data set on DUXB11 cell line (increasing insulin concentration with same MPA supplementation, fed-batch culture), the afucosylation entry is “increased afucosylation”. Also, in the data set on DUXB11 cell line (total insulin added 11 mg/L), the “Afucosylation (%)” value was determined as 4.9% and the “Titer” value is listed as 2.3 g/L. Also, in the data set with DUXB11 cell line (total insulin added 13 mg/L), the “Afucosylation (%)” value is given as 6.2% and the “Titer” value worked out at 2.6 g/L. The same compound showed a FcgRIII a binding in the data set with FcgRIII a (2.5 mg/L ins in feed 1, with MPA) of 60. Moreover, in the data set with FcgRIII a (10 mg/L ins in feed 1, with MPA), the FcgRIII a binding was found to be 71. In the data set on FcgRIII a (30 mg/L ins in feed 1, with MPA), the FcgRIII a binding is reported as 100. For the same compound, in the data set on FcgRIII a (60 mg/L ins in feed 1, with MPA), the FcgRIII a binding came out at 100.

(Values after patent US9944968B2, “Control of protein glycosylation by culture medium supplementation and cell culture process parameters” (Biogen MA Inc., priority 2013, dated 2018).)
